Data published in the kinase profiling compilation of Christmann-Franck et al. (2016).

Key:
Test in all cases: KINOMEscan competition binding
Settings in all cases: compound 10.0 µM
NTRK2 (human) = NTRK2 (human) (UniProt Q16620)
BMPR1B (human) = BMPR1B (human) (UniProt O00238)
[1] = target: TYK2 JH2 pseudokinase (human) (UniProt P29597)
MET (human) = MET (human) (UniProt P08581)
CDK3 (human) = CDK3 (human) (UniProt Q00526)
MYLK4 (human) = MYLK4 (human) (UniProt Q86YV6)
IGF1R (human) = IGF1R (human) (UniProt P08069)
IRAK3 (human) = IRAK3 (human) (UniProt Q9Y616)
CSNK2A2 (human) = CSNK2A2 (human) (UniProt P19784)
CSNK2A2 (human), sequence (P19784 whole entry, looked up): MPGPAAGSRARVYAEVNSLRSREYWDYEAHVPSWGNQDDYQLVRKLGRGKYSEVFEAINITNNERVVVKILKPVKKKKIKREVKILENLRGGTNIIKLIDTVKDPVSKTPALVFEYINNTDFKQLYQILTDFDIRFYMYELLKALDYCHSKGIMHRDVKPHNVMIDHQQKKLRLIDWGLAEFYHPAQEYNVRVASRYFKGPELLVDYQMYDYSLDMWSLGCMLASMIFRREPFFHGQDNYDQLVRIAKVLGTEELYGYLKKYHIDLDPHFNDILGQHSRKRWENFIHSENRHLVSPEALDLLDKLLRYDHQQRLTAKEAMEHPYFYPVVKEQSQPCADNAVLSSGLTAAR

MAPK4 (human) = MAPK4 (human) (UniProt P31152)
MLTK (human) = MLTK (human) (UniProt Q9NYL2)
PDPK1 (human) = PDPK1 (human) (UniProt O15530)
TYRO3 (human) = TYRO3 (human) (UniProt Q06418)
ACVR1B (human) = ACVR1B (human) (UniProt P36896)
AURKB (human) = AURKB (human) (UniProt Q96GD4)
AURKB (human), sequence (Q96GD4 whole entry, looked up): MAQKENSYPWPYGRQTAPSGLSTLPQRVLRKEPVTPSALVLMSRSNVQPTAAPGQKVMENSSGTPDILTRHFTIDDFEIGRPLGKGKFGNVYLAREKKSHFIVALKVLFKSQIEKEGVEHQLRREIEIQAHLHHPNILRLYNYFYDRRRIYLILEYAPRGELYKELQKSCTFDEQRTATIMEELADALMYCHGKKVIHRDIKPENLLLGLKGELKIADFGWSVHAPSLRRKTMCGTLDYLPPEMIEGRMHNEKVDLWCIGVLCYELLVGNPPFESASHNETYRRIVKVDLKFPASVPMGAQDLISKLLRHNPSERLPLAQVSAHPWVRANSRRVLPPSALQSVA

KDR (human) = KDR (human) (UniProt P35968)
WEE2 (human) = WEE2 (human) (UniProt P0C1S8)
WEE2 (human), sequence (P0C1S8 whole entry, looked up): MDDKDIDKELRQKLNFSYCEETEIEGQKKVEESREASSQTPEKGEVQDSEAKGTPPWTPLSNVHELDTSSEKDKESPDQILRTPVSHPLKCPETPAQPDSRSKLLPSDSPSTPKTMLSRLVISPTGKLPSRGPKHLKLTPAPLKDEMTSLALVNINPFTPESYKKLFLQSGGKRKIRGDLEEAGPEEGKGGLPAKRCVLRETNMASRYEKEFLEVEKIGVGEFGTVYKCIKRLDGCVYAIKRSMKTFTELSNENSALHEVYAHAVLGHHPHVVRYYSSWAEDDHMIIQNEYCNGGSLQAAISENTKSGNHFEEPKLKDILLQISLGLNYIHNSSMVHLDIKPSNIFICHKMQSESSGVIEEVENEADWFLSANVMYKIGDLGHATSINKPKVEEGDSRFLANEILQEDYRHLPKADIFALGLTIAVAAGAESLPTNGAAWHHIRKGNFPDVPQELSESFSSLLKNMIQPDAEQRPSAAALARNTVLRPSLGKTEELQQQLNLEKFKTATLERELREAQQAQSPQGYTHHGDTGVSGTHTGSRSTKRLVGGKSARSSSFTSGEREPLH

BRAF (human) = BRAF (human) (UniProt P15056)
CDK19 (human) = CDK19 (human) (UniProt Q9BWU1)
MAPK7 (human) = MAPK7 (human) (UniProt Q13164)
MAPK7 (human), sequence (Q13164 whole entry, looked up): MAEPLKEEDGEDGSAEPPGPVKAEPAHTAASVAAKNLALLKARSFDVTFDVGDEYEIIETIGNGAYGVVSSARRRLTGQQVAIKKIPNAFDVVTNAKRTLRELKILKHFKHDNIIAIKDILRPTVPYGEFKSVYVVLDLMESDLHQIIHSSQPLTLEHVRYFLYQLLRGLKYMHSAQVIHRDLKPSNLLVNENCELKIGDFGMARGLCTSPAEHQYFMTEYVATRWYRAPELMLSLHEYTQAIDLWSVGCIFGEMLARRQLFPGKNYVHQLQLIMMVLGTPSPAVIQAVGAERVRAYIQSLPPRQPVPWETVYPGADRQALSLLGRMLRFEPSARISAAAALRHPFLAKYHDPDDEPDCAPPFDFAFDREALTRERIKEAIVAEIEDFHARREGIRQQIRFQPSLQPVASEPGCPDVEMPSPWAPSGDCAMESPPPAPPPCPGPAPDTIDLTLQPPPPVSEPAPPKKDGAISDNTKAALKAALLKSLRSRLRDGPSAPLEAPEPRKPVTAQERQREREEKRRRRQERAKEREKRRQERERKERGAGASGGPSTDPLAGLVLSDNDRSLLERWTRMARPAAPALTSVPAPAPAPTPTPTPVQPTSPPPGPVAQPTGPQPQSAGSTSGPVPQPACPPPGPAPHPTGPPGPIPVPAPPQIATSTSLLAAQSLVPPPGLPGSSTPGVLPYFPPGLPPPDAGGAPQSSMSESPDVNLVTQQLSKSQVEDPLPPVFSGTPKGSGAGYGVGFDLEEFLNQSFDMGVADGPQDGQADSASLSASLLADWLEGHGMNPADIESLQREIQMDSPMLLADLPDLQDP

BRSK1 (human) = BRSK1 (human) (UniProt Q8TDC3)
PIK3CA (human) = PIK3CA (human) (UniProt P42336)
MUSK (human) = MUSK (human) (UniProt O15146)
HCK (human) = HCK (human) (UniProt P08631)
HCK (human), sequence (P08631 whole entry, looked up): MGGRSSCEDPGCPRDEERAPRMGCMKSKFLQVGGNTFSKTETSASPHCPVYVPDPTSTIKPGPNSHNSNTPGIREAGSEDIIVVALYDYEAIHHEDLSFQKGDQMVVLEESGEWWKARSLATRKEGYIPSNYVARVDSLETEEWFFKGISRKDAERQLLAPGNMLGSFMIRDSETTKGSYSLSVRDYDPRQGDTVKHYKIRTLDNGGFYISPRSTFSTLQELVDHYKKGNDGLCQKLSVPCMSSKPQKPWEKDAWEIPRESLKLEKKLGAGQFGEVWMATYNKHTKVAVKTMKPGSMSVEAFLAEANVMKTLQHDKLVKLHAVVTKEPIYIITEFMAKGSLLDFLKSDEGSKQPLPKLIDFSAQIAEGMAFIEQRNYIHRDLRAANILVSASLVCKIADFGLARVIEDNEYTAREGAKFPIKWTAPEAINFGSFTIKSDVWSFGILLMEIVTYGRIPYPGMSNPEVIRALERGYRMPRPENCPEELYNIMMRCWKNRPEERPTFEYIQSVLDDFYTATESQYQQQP

RPS6KA6 KD2 (human) = RPS6KA6 KD2 (human) (UniProt Q9UK32)
AKT3 (human) = AKT3 (human) (UniProt Q9Y243)
LATS1 (human) = LATS1 (human) (UniProt O95835)
LATS1 (human), sequence (O95835 whole entry, looked up): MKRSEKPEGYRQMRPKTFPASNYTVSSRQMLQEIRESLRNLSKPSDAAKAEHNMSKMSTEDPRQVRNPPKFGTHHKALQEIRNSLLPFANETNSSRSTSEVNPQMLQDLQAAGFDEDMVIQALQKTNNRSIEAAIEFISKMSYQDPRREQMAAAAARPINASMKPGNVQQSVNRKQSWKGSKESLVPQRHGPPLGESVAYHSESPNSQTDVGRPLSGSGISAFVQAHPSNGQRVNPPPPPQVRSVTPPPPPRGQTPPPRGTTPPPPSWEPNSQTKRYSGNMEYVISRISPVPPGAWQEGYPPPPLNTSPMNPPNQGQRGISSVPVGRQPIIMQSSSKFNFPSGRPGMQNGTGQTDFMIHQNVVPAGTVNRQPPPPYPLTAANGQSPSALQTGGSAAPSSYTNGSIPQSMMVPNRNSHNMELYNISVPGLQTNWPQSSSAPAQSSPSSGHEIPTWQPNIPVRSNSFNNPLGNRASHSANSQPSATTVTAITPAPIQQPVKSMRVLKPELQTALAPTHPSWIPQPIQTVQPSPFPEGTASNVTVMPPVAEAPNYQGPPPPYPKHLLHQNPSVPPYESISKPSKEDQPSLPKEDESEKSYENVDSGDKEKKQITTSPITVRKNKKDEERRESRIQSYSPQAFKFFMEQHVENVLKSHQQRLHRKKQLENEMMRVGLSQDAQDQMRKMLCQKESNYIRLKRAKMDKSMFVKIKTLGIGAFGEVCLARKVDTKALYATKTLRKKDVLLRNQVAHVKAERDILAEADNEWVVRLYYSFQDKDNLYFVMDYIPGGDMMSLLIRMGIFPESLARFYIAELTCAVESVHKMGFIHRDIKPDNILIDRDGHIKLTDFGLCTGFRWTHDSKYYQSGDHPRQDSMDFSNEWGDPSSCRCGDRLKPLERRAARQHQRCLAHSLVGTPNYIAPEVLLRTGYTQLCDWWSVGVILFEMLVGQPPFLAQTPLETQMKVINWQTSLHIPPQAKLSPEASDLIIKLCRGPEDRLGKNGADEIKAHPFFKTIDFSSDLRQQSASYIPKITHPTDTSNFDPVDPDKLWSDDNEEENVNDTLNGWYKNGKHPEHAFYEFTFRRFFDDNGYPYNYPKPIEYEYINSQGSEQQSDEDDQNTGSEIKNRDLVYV

TNNI3K (human) = TNNI3K (human) (UniProt Q59H18)
ACVR1 (human) = ACVR1 (human) (UniProt Q04771)
YES1 (human) = YES1 (human) (UniProt P07947)
RPS6KA1 KD1 (human) = RPS6KA1 KD1 (human) (UniProt Q15418)
MAPK1 (human) = MAPK1 (human) (UniProt P28482)
HUNK (human) = HUNK (human) (UniProt P57058)
PI4KB (human) = PI4KB (human) (UniProt Q9UBF8)
CSNK1D (human) = CSNK1D (human) (UniProt P48730)
PLK2 (human) = PLK2 (human) (UniProt Q9NYY3)

BMPR1B (human), sequence (O00238 whole entry, looked up): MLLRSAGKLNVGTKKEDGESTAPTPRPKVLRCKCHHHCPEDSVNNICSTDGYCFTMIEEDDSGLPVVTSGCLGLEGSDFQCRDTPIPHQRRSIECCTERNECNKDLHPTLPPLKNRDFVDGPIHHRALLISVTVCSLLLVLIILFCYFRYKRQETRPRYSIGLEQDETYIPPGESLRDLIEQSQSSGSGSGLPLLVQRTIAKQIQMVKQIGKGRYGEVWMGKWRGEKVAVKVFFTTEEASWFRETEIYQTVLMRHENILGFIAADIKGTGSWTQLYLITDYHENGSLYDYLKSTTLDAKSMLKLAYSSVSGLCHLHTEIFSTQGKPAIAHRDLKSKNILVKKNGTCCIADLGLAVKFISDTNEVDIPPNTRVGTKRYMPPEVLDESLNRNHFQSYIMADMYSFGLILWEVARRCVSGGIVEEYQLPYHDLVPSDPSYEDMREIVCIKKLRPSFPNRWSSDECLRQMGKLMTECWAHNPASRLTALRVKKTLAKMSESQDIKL
MYLK4 (human), sequence (Q86YV6 whole entry, looked up): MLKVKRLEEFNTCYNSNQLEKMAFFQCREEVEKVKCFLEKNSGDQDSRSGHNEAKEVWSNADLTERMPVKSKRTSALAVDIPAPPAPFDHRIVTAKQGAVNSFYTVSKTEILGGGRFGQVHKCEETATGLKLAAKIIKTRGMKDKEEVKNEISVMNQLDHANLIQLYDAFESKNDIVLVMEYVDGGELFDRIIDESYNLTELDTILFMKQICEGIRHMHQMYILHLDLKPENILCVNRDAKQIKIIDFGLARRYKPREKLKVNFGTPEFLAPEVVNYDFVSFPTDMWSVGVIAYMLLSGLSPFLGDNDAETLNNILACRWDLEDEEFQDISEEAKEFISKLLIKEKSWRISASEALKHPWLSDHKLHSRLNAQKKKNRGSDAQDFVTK
CDK3 (human), sequence (Q00526 whole entry, looked up): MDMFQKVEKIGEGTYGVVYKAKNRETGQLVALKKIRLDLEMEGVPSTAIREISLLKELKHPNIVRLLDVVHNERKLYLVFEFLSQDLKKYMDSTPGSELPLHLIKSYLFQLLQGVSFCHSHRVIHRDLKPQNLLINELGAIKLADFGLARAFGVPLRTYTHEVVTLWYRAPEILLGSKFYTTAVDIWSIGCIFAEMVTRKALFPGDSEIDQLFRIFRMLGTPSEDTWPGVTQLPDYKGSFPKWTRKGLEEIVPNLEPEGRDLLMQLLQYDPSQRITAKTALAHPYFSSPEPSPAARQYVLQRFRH

Compound | kinase still bound, per cent of control (NTRK2 (human)) [%] | kinase still bound, per cent of control (BMPR1B (human)) [%] | kinase still bound, per cent of control (MET (human)) [%] | kinase still bound, per cent of control (CDK3 (human)) [%] | kinase still bound, per cent of control (MYLK4 (human)) [%] | kinase still bound, per cent of control (IGF1R (human)) [%] | kinase still bound, per cent of control (IRAK3 (human)) [%] | kinase still bound, per cent of control (CSNK2A2 (human)) [%] | kinase still bound, per cent of control (MAPK4 (human)) [%] | kinase still bound, per cent of control (MLTK (human)) [%] | kinase still bound, per cent of control (PDPK1 (human)) [%] | kinase still bound, per cent of control (TYRO3 (human)) [%] | kinase still bound, per cent of control (ACVR1B (human)) [%] | kinase still bound, per cent of control (AURKB (human)) [%] | kinase still bound, per cent of control (KDR (human)) [%] | kinase still bound, per cent of control (BRAF (human)) [%] | kinase still bound, per cent of control (CDK19 (human)) [%] | kinase still bound, per cent of control (MAPK7 (human)) [%] | kinase still bound, per cent of control (BRSK1 (human)) [%] | kinase still bound, per cent of control (PIK3CA (human)) [%] | other results
Cc1n[nH]c2ccc(-c3cncc(OC[C@@H](N)Cc4c[nH]c5ccccc45)c3)cc12 | 100 | 100 | 100 | 22 | 3 | 100 | 30 | 13 | 100 | 100 | 100 | 100 | 100 | 100 | 100 | 100 | 0.5 | 100 | 100 | 100 | kinase still bound, per cent of control [1]: 100%; kinase still bound, per cent of control (WEE2 (human)): 100%; kinase still bound, per cent of control (MUSK (human)): 100%; kinase still bound, per cent of control (HCK (human)): 100%; kinase still bound, per cent of control (RPS6KA6 KD2 (human)): 100%; kinase still bound, per cent of control (AKT3 (human)): 2.9%; kinase still bound, per cent of control (LATS1 (human)): 3.8%; kinase still bound, per cent of control (TNNI3K (human)): 100%; kinase still bound, per cent of control (ACVR1 (human)): 100%; kinase still bound, per cent of control (YES1 (human)): 100%; kinase still bound, per cent of control (RPS6KA1 KD1 (human)): 100%; kinase still bound, per cent of control (MAPK1 (human)): 100%
COc1cc(N2CCN(C)CC2)ccc1Nc1ncc2c(n1)N(C)c1ccccc1C(=O)N2C | 100 | 100 | 100 | 100 | 100 | 100 | 100 | 100 | 100 | 100 | 100 | 100 | 100 | 100 | 100 | 100 | 100 | 0 | 100 | 100 | kinase still bound, per cent of control [1]: 100%; kinase still bound, per cent of control (HUNK (human)): 100%; kinase still bound, per cent of control (WEE2 (human)): 100%; kinase still bound, per cent of control (PI4KB (human)): 100%; kinase still bound, per cent of control (MUSK (human)): 100%; kinase still bound, per cent of control (CSNK1D (human)): 100%; kinase still bound, per cent of control (HCK (human)): 100%; kinase still bound, per cent of control (RPS6KA6 KD2 (human)): 4.9%; kinase still bound, per cent of control (AKT3 (human)): 100%; kinase still bound, per cent of control (PLK2 (human)): 100%; kinase still bound, per cent of control (LATS1 (human)): 100%; kinase still bound, per cent of control (TNNI3K (human)): 100%; kinase still bound, per cent of control (ACVR1 (human)): 100%; kinase still bound, per cent of control (YES1 (human)): 100%; kinase still bound, per cent of control (RPS6KA1 KD1 (human)): 100%; kinase still bound, per cent of control (MAPK1 (human)): 100%
CCN(CC)CCCCNc1ncc2cc(-c3cc(OC)cc(OC)c3)c(NC(=O)NC(C)(C)C)nc2n1 | 100 | 100 | 100 | 100 | 100 | 100 | 100 | 100 | 100 | 100 | 100 | 100 | 100 | 100 | 21 | 100 | 100 | 36 | 100 | 20 | kinase still bound, per cent of control (MUSK (human)): 100%; kinase still bound, per cent of control (CSNK1D (human)): 100%; kinase still bound, per cent of control (HCK (human)): 100%; kinase still bound, per cent of control (RPS6KA6 KD2 (human)): 100%; kinase still bound, per cent of control (AKT3 (human)): 100%; kinase still bound, per cent of control (LATS1 (human)): 100%; kinase still bound, per cent of control (TNNI3K (human)): 100%; kinase still bound, per cent of control (ACVR1 (human)): 100%; kinase still bound, per cent of control (YES1 (human)): 100%; kinase still bound, per cent of control (RPS6KA1 KD1 (human)): 100%; kinase still bound, per cent of control (MAPK1 (human)): 100%
C=CC(=O)Nc1ccc(CN(C(=O)Nc2c(Cl)c(OC)cc(OC)c2Cl)c2cc(Nc3ccc(N4CCN(C)CC4)cc3)ncn2)cc1 | 100 | 100 | 100 | 100 | 100 | 16 | 100 | 100 | 100 | 100 | 100 | 100 | 100 | 100 | 0.45 | 100 | 100 | 9.7 | 100 | 100 | kinase still bound, per cent of control [1]: 100%; kinase still bound, per cent of control (WEE2 (human)): 100%; kinase still bound, per cent of control (MUSK (human)): 6.2%; kinase still bound, per cent of control (CSNK1D (human)): 100%; kinase still bound, per cent of control (HCK (human)): 11%; kinase still bound, per cent of control (RPS6KA6 KD2 (human)): 100%; kinase still bound, per cent of control (AKT3 (human)): 100%; kinase still bound, per cent of control (LATS1 (human)): 100%; kinase still bound, per cent of control (TNNI3K (human)): 100%; kinase still bound, per cent of control (ACVR1 (human)): 100%; kinase still bound, per cent of control (YES1 (human)): 5.2%; kinase still bound, per cent of control (RPS6KA1 KD1 (human)): 100%; kinase still bound, per cent of control (MAPK1 (human)): 100%
